The values below come from patent US11472803B2, “7-substituted 1-aryl-naphthyridine-3-carboxylic acid amides and use thereof” (Bayer Aktiengesellschaft, priority 2016, dated 2022).

A word on the pEC50: it is the negative decadic logarithm of the EC50, by convention in mol/L. A high value points to a small EC50. A word on the Emax: it is the maximal effect, on the per cent scale that the assay sets.

This test concerns the target T1, human M2 receptor (Homo sapiens, UniProt P08172).
T1 construct: expressed in transfected cells; host or cells: CHO-DUKX (CHO-DUKX-M2-GIRK)
T1 sequence (P08172 1-466): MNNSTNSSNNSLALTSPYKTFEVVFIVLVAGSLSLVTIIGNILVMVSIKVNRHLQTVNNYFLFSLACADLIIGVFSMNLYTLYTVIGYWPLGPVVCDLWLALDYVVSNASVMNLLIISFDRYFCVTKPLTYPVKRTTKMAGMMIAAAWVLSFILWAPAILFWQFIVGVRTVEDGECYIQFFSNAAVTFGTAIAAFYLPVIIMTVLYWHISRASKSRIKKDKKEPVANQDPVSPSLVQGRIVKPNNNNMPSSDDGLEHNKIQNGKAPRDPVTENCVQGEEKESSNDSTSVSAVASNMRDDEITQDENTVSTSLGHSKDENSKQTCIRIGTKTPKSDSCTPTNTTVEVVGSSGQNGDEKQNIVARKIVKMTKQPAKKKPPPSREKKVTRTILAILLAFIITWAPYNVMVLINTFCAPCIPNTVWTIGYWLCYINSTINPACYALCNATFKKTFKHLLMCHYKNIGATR
As to the kind of experiment: Functional M2-GIRK1/4 activation test: allosteric potency (EC50) and efficiency at EC20 acetylcholine. Format: cell-based. As to conditions: CHO-DUKX-M2-GIRK cells; for pEC50: voltage-sensitive dye, acetylcholine at EC20, in some cases mean of two or more determinations. The essentials:
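Positive allosteric modulation measured as boosting of an EC20 acetylcholine response: hyperpolarization via GIRK1/4 in CHO-DUKX-M2-GIRK cells, monitored by membrane-potential dye fluorescence over 60 s after agonist, compound preadded. Hill-function fit gives EC50 and efficiency.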

Where [1] appears, read: boosting of the acetylcholine effect at EC20 acetylcholine concentration.

pEC50: −log10 of the molar value.

For `CN1CCN(c2nc3c(cc2F)c(=O)c(C(=O)N[C@@H](C2CC2)C(F)(F)F)cn3-c2c(F)cc(F)cc2F)C(CO)C1` (stereo partly drawn) [Example 176, N-[(1S)-1-Cyclopropyl-2,2,2-trifluoroethyl]-6-fluoro-7-[2-(hydroxymethyl)-4-methylpiperazin-1-yl]-4-oxo-1-(2,4,6-trifluorophenyl)-1,4-dihydro-1,8-naphthyridine-3-carboxamide], the pEC50 is 6.96. The maximal response (Emax) under setting [1] came to 91%.
As for `CC(C)(NC(=O)c1cn(-c2c(F)cc(F)cc2F)c2nc(N3C[C@@H](O)[C@@H](O)C3)c(F)cc2c1=O)C(F)(F)F` [Example 124, 7-[(3R,4S)-3,4-Dihydroxypyrrolidin-1-yl]-6-fluoro-4-oxo-N-(1,1,1-trifluoro-2-methylpropan-2-yl)-1-(2,4,6-trifluorophenyl)-1,4-dihydro-1,8-naphthyridine-3-carboxamide], the pEC50 is 7.74. Moreover, the Emax under setting [1] was determined as 100%.
In turn, `CCC(NC(=O)c1cn(-c2c(F)cc(F)cc2F)c2nc(N3C[C@@H](O)[C@@H](O)C3)c(F)cc2c1=O)C(C)C` (stereo partly drawn) [Example 105, 7-[(3R,4S)-3,4-Dihydroxypyrrolidin-1-yl]-6-fluoro-V-[2-methylpentan-3-yl]-6-fluoro-4-oxo-1-(2,4,6-trifluorophenyl)-1,4-dihydro-1,8-naphthyridine-3-carboxamide] gave a pEC50 of 8.12. For the same compound, the Efficiency under setting [1] was determined as 97%.
Take `CCC(NC(=O)c1cn(-c2c(F)cc(F)cc2F)c2nc(N3C[C@@H](O)[C@@H](O)C3)c(F)cc2c1=O)C(C)C` (mixture of isomers) [Example 104, 7-[(3R,4S)-3,4-Dihydroxypyrrolidin-1-yl]-6-fluoro-N-[2-methylpentan-3-yl]-6-fluoro-4-oxo-1-(2,4,6-trifluorophenyl)-1,4-dihydro-1,8-naphthyridine-3-carboxamide]: the pEC50 is 7.89. Under setting [1], this compound gave an Emax of 97%.
On the same counts, the results for `C[C@H](NC(=O)c1cn(-c2c(F)cc(F)cc2Cl)c2nc(N3C[C@@H](O)[C@H](O)C3)c(F)cc2c1=O)C(F)(F)F` (single isomer, unassigned) [Example 225] are 6.96 and 82%.
The matching figures for `CC(C)(CC(F)(F)F)NC(=O)c1cn(-c2c(F)cc(F)cc2F)c2nc(N3CC[C@H](O)C3)c(F)cc2c1=O` [Example 107, 6-Fluoro-7-[(3S)-3-hydroxypyrrolidin-1-yl]-4-oxo-N-(4,4,4-trifluoro-2-methylbutan-2-yl)-1-(2,4,6-trifluorophenyl)-1,4-dihydro-1,8-naphthyridine-3-carboxamide]: 8.45 and 92%.
On the same counts, the results for `CCC(NC(=O)c1cn(-c2c(F)cc(F)cc2F)c2nc(N3C[C@@H](O)[C@H](O)C3)c(F)cc2c1=O)C(C)C` (single isomer, unassigned) [Example 29] are 8.60 and 100%.
`CCC(NC(=O)c1cn(-c2c(F)cc(F)cc2F)c2nc(N3C[C@@H](O)[C@H](O)C3)c(F)cc2c1=O)C(C)C` (mixture of isomers) [Example 28, 7-[(3R,4R)-3,4-Dihydroxypyrrolidin-1-yl]-6-fluoro-N-(2-methylpentan-3-yl)-4-oxo-1-(2,4,6-trifluorophenyl)-1,4-dihydro-1,8-naphthyridine-3-carboxamide] had a pEC50 of 8.50. The compound further came in with an Emax under setting [1] of 100%.
Compound `CC[C@H](NC(=O)c1cn(-c2c(F)cc(F)cc2F)c2nc(N3CCOCC3)c(F)cc2c1=O)C(F)(F)F` [Example 151, 6-Fluoro-7-(morpholin-4-yl)-4-oxo-N-[(2S)-1,1,1-trifluorobutan-2-yl]-1-(2,4,6-trifluoro-phenyl)-1,4-dihydro-1,8-naphthyridine-3-carboxamide] had a pEC50 of 7.62. This compound gave an Emax under setting [1] of 100%.
